The source of these data is ChEMBL document CHEMBL5715954, “Silencing c-Myc translation as a therapeutic strategy through targeting PI3Kδ and CK1ε in hematological malignancies” (Blood, 2017).

What all share (set-up): scale not given: the % may be the effect or the level left
For experiment [1], the target named is Serine/threonine-protein kinase SIK1 (Homo sapiens) (UniProt P57059). Briefly: Inhibition of human SIK1 assessed as enzyme activity at 1 uM using AMARAASAAALARRR as substrate preincubated for 20 mins followed by [gamma-33P]-ATP addition and measured after 120 mins by radiometric Hot-SpotSM Kinase assay relative to control.
Chain of Serine/threonine-protein kinase SIK1 (Homo sapiens) (P57059 whole entry): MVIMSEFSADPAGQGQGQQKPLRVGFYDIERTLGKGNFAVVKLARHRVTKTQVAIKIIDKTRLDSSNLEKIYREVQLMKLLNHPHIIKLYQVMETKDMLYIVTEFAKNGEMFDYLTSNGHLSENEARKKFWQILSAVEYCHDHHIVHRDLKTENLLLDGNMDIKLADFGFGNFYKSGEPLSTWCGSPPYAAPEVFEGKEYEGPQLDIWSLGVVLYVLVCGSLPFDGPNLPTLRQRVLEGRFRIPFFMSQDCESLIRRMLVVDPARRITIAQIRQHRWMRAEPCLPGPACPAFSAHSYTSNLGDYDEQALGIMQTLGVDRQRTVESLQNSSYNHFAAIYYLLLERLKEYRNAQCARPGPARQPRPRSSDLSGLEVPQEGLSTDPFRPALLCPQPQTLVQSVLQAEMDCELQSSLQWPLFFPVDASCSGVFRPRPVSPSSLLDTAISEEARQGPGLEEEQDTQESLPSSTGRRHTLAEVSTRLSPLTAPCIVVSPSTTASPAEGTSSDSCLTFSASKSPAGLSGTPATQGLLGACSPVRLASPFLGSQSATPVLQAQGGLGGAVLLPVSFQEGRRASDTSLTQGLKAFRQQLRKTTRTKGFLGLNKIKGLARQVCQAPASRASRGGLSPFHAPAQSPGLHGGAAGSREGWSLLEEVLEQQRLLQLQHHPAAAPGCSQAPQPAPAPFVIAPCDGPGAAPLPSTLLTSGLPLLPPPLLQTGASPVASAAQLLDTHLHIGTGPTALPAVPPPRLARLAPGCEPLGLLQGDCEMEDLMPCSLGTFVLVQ
For experiment [2], the target named is Receptor tyrosine-protein kinase erbB-2 (Homo sapiens) (UniProt P04626). Briefly: Inhibition of human ERBB2 assessed as enzyme activity at 1 uM using poly[Glu:Tyr] (4:1) as substrate preincubated for 20 mins followed by [gamma-33P]-ATP addition and measured after 120 mins by radiometric Hot-SpotSM Kinase assay relative to control.
Chain of Receptor tyrosine-protein kinase erbB-2 (Homo sapiens) (P04626 whole entry): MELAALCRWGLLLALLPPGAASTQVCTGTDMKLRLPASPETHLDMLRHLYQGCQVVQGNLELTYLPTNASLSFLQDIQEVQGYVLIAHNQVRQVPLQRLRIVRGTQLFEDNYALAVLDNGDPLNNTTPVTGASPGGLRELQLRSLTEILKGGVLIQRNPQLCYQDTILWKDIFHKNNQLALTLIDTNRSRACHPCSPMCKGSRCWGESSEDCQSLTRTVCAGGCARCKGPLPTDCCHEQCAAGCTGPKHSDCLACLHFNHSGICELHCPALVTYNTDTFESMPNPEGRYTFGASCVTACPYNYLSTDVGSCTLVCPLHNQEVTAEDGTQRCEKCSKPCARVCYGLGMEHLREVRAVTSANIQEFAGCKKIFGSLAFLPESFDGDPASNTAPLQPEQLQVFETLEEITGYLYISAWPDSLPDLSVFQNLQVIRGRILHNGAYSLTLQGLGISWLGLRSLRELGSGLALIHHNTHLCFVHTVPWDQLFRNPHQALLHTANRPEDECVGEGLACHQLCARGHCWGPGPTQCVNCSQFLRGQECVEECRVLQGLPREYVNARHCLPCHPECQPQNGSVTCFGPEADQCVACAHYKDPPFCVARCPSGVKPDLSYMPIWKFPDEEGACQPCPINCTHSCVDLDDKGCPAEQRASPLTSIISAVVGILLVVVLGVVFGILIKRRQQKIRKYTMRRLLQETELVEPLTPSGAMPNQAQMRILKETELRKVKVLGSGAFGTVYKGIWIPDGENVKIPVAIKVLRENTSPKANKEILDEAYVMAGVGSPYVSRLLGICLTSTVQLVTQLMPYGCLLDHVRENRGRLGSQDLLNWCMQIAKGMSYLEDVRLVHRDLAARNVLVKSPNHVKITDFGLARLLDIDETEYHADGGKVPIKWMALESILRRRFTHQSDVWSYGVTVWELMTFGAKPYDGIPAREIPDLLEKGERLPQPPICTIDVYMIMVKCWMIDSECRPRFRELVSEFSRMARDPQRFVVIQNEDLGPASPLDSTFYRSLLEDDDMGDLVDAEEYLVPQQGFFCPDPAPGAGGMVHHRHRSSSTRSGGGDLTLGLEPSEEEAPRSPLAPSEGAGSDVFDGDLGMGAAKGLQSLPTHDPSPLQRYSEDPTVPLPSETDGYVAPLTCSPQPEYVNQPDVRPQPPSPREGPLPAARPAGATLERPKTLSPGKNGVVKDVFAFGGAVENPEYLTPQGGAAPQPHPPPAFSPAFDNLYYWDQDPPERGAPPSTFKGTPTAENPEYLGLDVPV
The target in experiment [3] is T1, Aurora kinase A (Homo sapiens) (UniProt O14965).
T1 sequence (whole entry): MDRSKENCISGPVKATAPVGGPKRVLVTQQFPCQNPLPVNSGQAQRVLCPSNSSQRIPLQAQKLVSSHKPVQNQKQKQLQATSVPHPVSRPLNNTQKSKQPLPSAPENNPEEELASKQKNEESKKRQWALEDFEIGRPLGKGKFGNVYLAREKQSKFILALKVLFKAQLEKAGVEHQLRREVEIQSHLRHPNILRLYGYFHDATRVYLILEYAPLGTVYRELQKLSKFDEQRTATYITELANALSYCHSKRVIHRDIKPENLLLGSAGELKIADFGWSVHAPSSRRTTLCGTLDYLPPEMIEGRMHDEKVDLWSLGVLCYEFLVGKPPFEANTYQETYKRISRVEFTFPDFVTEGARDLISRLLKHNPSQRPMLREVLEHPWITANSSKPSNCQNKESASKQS
The experiment in a line: Inhibition of human Aurora A assessed as enzyme activity at 1 uM using H-LRRASLG as substrate preincubated for 20 mins followed by [gamma-33P]-ATP addition and measured after 120 mins by radiometric Hot-SpotSM Kinase assay relative to control.

Experiment [4] deals with Receptor tyrosine-protein kinase erbB-4 (Homo sapiens) (UniProt Q15303). Briefly: Inhibition of human ERBB4 assessed as enzyme activity at 1 uM using poly[Glu:Tyr] (4:1) as substrate preincubated for 20 mins followed by [gamma-33P]-ATP addition and measured after 120 mins by radiometric Hot-SpotSM Kinase assay relative to control.
Chain of Receptor tyrosine-protein kinase erbB-4 (Homo sapiens) (Q15303 whole entry): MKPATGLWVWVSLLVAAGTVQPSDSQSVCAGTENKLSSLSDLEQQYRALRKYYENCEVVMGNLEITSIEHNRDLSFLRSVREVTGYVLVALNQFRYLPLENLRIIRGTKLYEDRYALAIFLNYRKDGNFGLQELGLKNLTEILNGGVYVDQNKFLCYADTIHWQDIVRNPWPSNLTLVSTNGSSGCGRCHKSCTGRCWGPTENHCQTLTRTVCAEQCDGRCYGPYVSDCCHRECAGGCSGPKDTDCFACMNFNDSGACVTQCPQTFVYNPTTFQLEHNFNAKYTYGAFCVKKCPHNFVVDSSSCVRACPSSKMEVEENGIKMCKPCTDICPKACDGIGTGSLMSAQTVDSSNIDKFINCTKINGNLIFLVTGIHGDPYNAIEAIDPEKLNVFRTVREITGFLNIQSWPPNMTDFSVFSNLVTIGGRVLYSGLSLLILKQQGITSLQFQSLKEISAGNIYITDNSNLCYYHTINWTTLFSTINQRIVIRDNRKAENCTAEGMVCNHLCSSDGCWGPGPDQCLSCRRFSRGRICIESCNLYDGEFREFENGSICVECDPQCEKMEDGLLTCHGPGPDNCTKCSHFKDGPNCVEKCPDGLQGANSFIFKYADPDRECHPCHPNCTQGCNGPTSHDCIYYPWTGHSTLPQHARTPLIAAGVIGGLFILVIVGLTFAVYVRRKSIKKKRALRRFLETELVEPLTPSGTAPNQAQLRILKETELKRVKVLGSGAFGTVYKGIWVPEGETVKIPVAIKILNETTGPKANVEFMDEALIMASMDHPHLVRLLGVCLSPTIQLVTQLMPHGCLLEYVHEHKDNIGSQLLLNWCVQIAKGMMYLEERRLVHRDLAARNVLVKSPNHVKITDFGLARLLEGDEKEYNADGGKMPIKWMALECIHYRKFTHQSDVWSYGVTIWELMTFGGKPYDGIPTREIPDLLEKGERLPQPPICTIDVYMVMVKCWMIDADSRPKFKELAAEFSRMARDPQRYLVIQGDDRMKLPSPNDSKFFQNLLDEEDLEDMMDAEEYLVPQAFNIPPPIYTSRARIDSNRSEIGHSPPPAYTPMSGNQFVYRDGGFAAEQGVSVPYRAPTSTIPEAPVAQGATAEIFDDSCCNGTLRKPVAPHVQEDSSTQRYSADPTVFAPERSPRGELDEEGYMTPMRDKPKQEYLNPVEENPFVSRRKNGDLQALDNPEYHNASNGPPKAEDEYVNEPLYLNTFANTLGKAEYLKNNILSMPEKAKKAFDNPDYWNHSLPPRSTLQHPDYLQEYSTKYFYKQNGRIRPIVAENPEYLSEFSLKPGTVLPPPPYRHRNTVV
The target of experiment [5] is Ephrin type-A receptor 7 (Homo sapiens) (UniProt Q15375). Briefly: Inhibition of human EPHA7 assessed as enzyme activity at 1 uM using poly[Glu:Tyr] (4:1) as substrate preincubated for 20 mins followed by [gamma-33P]-ATP addition and measured after 120 mins by radiometric Hot-SpotSM Kinase assay relative to control.
Chain of Ephrin type-A receptor 7 (Homo sapiens) (Q15375 28-998 limits assumed): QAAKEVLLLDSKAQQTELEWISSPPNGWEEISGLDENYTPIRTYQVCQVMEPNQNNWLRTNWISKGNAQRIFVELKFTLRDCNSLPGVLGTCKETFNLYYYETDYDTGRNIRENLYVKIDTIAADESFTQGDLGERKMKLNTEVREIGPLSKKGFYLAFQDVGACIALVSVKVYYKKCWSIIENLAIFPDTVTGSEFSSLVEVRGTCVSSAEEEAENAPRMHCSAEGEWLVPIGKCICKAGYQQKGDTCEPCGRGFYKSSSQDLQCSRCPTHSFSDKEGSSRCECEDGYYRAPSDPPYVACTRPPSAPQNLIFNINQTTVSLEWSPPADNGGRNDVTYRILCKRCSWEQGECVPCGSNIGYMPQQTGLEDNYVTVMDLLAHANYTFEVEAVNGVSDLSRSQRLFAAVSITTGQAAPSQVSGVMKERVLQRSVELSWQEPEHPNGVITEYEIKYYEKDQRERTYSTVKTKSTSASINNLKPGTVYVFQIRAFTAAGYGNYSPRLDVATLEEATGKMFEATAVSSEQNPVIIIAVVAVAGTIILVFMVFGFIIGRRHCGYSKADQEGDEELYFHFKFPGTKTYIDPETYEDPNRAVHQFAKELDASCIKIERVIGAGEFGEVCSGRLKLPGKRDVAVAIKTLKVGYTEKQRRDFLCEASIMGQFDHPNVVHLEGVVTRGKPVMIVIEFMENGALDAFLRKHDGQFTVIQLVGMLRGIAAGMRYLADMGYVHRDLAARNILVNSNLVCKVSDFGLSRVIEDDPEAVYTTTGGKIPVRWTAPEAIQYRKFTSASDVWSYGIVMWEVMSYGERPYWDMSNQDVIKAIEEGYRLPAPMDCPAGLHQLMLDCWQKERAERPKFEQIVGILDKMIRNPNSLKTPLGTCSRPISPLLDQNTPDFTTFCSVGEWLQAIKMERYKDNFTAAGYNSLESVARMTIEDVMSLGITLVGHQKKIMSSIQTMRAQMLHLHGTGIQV
The target of experiment [6] is T2, Ephrin type-A receptor 6 (Homo sapiens) (UniProt Q9UF33).
T2 sequence (whole entry): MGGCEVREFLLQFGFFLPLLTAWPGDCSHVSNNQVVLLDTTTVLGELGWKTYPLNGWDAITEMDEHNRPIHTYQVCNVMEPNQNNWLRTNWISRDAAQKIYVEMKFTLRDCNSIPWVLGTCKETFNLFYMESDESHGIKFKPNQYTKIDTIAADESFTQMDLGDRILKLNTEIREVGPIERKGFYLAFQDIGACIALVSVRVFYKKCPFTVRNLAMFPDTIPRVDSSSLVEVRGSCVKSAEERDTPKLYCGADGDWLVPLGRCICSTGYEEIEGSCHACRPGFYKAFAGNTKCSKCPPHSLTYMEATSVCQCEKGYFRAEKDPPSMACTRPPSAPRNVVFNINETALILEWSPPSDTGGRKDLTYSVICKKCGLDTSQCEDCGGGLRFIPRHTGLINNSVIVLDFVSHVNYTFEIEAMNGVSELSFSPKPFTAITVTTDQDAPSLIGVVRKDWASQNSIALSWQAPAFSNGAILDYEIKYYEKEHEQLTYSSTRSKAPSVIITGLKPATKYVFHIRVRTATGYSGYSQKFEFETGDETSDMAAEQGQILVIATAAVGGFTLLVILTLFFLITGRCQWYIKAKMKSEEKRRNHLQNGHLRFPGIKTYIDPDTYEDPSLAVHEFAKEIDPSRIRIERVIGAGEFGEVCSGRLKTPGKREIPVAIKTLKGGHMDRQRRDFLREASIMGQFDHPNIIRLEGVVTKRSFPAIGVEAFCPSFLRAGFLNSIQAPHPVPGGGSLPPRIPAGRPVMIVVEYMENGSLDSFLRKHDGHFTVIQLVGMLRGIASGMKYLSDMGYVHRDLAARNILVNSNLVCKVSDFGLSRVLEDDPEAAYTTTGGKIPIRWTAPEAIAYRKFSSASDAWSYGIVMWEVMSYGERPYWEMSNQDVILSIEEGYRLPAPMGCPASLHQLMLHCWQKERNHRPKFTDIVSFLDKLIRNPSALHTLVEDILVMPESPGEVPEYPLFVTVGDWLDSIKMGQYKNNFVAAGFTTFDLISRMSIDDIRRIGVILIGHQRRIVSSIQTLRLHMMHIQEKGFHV
Briefly: Inhibition of human EPHA6 assessed as enzyme activity at 1 uM using poly[Glu:Tyr] (4:1) as substrate preincubated for 20 mins followed by [gamma-33P]-ATP addition and measured after 120 mins by radiometric Hot-SpotSM Kinase assay relative to control.

Experiment [7] concerns the target T3, Myotonin-protein kinase (Homo sapiens) (UniProt Q09013).
T3 sequence (whole entry): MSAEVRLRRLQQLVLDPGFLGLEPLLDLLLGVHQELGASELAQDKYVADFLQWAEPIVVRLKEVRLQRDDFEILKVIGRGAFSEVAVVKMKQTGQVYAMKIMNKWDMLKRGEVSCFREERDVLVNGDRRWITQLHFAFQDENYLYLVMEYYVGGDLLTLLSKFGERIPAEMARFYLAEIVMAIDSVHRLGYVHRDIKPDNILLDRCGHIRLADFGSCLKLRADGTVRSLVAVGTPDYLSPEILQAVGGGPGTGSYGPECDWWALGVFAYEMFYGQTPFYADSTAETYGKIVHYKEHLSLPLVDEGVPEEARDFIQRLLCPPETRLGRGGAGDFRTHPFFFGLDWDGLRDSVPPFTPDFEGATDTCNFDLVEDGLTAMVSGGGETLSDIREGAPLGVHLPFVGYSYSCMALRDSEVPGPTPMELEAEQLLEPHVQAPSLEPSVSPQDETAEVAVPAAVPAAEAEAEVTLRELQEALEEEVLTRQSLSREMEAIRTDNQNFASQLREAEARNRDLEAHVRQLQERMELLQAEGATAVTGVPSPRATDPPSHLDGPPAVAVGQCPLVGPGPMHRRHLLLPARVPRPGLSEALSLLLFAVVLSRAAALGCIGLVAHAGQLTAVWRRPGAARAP
The experiment in a line: Inhibition of human DMPK assessed as enzyme activity at 1 uM using KKRNRRLSVA as substrate preincubated for 20 mins followed by [gamma-33P]-ATP addition and measured after 120 mins by radiometric Hot-SpotSM Kinase assay relative to control.

In experiment [8] the target is Death-associated protein kinase 2 (Homo sapiens) (UniProt Q9UIK4). The experiment in a line: Inhibition of human DAPK2 assessed as enzyme activity at 1 uM using KKLNRTLSFAEPG as substrate preincubated for 20 mins followed by [gamma-33P]-ATP addition and measured after 120 mins by radiometric Hot-SpotSM Kinase assay relative to control.
Chain of Death-associated protein kinase 2 (Homo sapiens) (Q9UIK4 whole entry, looked up): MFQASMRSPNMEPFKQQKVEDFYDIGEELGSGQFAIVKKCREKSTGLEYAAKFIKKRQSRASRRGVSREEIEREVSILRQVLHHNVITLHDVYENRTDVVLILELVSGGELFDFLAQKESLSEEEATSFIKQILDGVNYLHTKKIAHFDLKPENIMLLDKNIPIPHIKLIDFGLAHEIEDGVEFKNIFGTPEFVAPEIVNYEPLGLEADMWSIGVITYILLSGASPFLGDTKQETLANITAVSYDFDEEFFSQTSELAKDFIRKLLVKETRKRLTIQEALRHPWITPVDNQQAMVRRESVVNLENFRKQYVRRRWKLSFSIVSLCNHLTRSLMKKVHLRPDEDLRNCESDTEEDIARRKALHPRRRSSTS

`C[C@H](Nc1ncnc2nc[nH]c12)c1cc2cccc(Cl)c2c(=O)n1-c1ccccc1`: the Activity in experiment [1] worked out at 95.7%; in experiment [2] it was 104%; in experiment [3] it was 96.8%; in experiment [4], 97.4%; in experiment [5], 93.4%; in experiment [6] it was 86.9%. Besides, the Activity in experiment [7] worked out at 106%; in experiment [8] it was 103%.
In the case of `CC[C@H](Nc1ncnc2[nH]cnc12)c1nc2cccc(F)c2c(=O)n1-c1ccccc1`, the Activity amounted to 95.5% in experiment [1]; 109% in experiment [2]; 104% in experiment [3]; 101% in experiment [4]; 89.7% in experiment [5]; 87.7% in experiment [6]. Also, the Activity came out at 104% in experiment [7] and 106% in experiment [8].
`CC(C)Oc1ccc(-c2nn([C@@H](C)c3oc4ccc(F)cc4c(=O)c3-c3cccc(F)c3)c3ncnc(N)c23)cc1F` [UMBRALISIB]: the Activity was 98.2% in experiment [1]; 117% in experiment [2]; 99.5% in experiment [3]; 101% in experiment [4]; 88.7% in experiment [5]; 81.3% in experiment [6]. The Activity in experiment [7] is 100%; in experiment [8], 97.9%.
